For 18 molecules, IC50 results are on record in patent US12227482B2, “Compounds and compositions for the treatment of cancer” (The Regents of the University of California, priority 2016, dated 2025).

What all share (assay type): cell-based
Common to all, as to details: 72 hours treatment, cell survival by CellTiter-Glo, 2% fetal bovine serum
(In general: ATP-based viability assays read luminescence as a measure of living cells.)

For one experiment, the system named is A549 cells. In words: Cell viability (CellTiter-Glo ATP content) in A549 cells. Put shortly:
(§1)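 Cells plated at 5,000 per well in antibiotic-free RPMI with 2% FBS, treated next day in triplicate with increasing compound doses (final DMSO 0.5%) for 72 hours. Viability read as ATP content by CellTiter-Glo luminescence; percent survival relative to vehicle control set as 100%.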

The test system of the next experiment is LOX cells. The experiment is described as follows: Cell viability (CellTiter-Glo ATP content) in LOX cells. Put shortly:
as §1

The subject of a further experiment is MelJuSo cells. In words: Cell viability (CellTiter-Glo ATP content) in MelJuSo cells. Put shortly:
as §1

Turning to `CCCCC1C(c2c(F)cc(F)cc2F)=NN(c2ccc(F)cc2F)C1(C)C(=O)NCC(=O)OC` (stereo not drawn) [Compound 98, methyl 2-(4-butyl-1-(2,4-difluorophenyl)-5-methyl-3-(2,4,6-trifluorophenyl)-4,5-dihydro-1H-pyrazole-5-carboxamido)acetate], the IC50 in the experiment with A549 cells (Homo sapiens, A549, 72 h) was > 2 µM; in the experiment on LOX cells (LOX, 72 h), > 2 µM; in the experiment on MelJuSo cells (Homo sapiens, MEL-JUSO) it was 0.5 to 1 µM.
As for `CCCCC1C(c2ccc(F)cc2)=NN(c2ccccc2)C1(C)C(=O)NCCCCO` (stereo not drawn) [Compound 35, 4-butyl-3-(4-fluorophenyl)-N-(4-hydroxybutyl)-5-methyl-1-phenyl-4,5-dihydro-1H-pyrazole-5-carboxamide], the IC50 with A549 cells (Homo sapiens, A549, 72 h) was > 2 µM; in the experiment on LOX cells (LOX, 72 h) it was 1 to 2 µM; with MelJuSo cells (Homo sapiens, MEL-JUSO), 1 to 2 µM.
For `CC1(C(=O)NCCN2CCOCC2)C(c2cccs2)C(c2ccc(F)cc2)=NN1c1ccc(F)cc1F` (stereo not drawn) [Compound 126, 1-(2,4-difluorophenyl)-3-(4-fluorophenyl)-5-methyl-N-(2-morpholinoethyl)-4-(thiophen-2-yl)-4,5-dihydro-1H-pyrazole-5-carboxamide], the IC50 in the experiment on A549 cells (Homo sapiens, A549, 72 h) is > 2 µM; with LOX cells (LOX, 72 h), > 2 µM; in the experiment with MelJuSo cells (Homo sapiens, MEL-JUSO), > 2 µM.
For the molecule `CCCCC1C(c2ccc(F)cc2)=NN(c2ccc(F)cc2F)C1(C)C(=O)NCCCCC(C)(C)O` (stereo not drawn) [Compound 4, 4-butyl-1-(2,4-difluorophenyl)-3-(4-fluorophenyl)-N-(5-hydroxy-5-methylhexyl)-5-methyl-4,5-dihydro-1H-pyrazole-5-carboxamide], the IC50 was 0.5 to 1 µM in the experiment with A549 cells (Homo sapiens, A549, 72 h); 0.5 to 1 µM in the experiment on LOX cells (LOX, 72 h); 0.5 to 1 µM in the experiment on MelJuSo cells (Homo sapiens, MEL-JUSO).
Regarding `CNC(=O)CNC(=O)C1(C)C(c2cccs2)C(c2ccc(F)cc2)=NN1c1ccc(F)cc1F` (stereo not drawn) [Compound 123, 1-(2,4-difluorophenyl)-3-(4-fluorophenyl)-5-methyl-N-(2-(methylamino)-2-oxoethyl)-4-(thiophen-2-yl)-4,5-dihydro-1H-pyrazole-5-carboxamide], the IC50 with A549 cells (Homo sapiens, A549, 72 h) was > 2 µM; with LOX cells (LOX, 72 h), > 2 µM; in the experiment with MelJuSo cells (Homo sapiens, MEL-JUSO) it was 1 to 2 µM.
With `CCCCC1C(c2ccc(S(C)(=O)=O)cc2)=NN(c2ccc(F)cc2F)C1(C)C(=O)NCCOC` (stereo not drawn) [Compound 114, 4-butyl-1-(2,4-difluorophenyl)-N-(2-methoxyethyl)-5-methyl-3-(4-(methylsulfonyl)phenyl)-4,5-dihydro-1H-pyrazole-5-carboxamide], the IC50 with A549 cells (Homo sapiens, A549, 72 h) is > 2 µM; in the experiment with LOX cells (LOX, 72 h) it was > 2 µM; in the experiment with MelJuSo cells (Homo sapiens, MEL-JUSO), > 2 µM.
Take `CC(C)(CO)CCCNC(=O)C1(C)C(c2ccc(F)cc2F)=NN(c2ccc(F)cc2F)C1c1ccc(Cl)o1` (stereo not drawn) [Compound 136, 5-(5-chlorofuran-2-yl)-1,3-bis(2,4-difluorophenyl)-N-(5-hydroxy-4,4-dimethylpentyl)-4-methyl-4,5-dihydro-1H-pyrazole-4-carboxamide]: the IC50 in the experiment with A549 cells (Homo sapiens, A549, 72 h) is > 2 µM; in the experiment with LOX cells (LOX, 72 h) it was > 2 µM; in the experiment with MelJuSo cells (Homo sapiens, MEL-JUSO), 1 to 2 µM.
Consider `CCCCC1C(c2ccc(F)cc2)=NN(c2cc(F)ccc2F)C1(C)C(=O)NCCCCC(C)(C)O` (stereo not drawn) [Compound 9, 4-butyl-1-(2,5-difluorophenyl)-3-(4-fluorophenyl)-N-(5-hydroxy-5-methylhexyl)-5-methyl-4,5-dihydro-1H-pyrazole-5-carboxamide], for which the IC50 in the experiment with A549 cells (Homo sapiens, A549, 72 h) fell in the range of 1 to 2 µM; with LOX cells (LOX, 72 h) it was 0.5 to 1 µM; in the experiment with MelJuSo cells (Homo sapiens, MEL-JUSO) it was 0.5 to 1 µM.
Take `CCCCC1C(c2ccc(F)cc2)=NN(c2ccc(F)cc2F)C1(C)C(=O)NCCOC` (stereo not drawn) [Compound 6, 4-butyl-1-(2,4-difluorophenyl)-3-(4-fluorophenyl)-N-(2-methoxyethyl)-5-methyl-4,5-dihydro-1H-pyrazole-5-carboxamide]: the IC50 with A549 cells (Homo sapiens, A549, 72 h) fell in the range of 0.5 to 1 µM; in the experiment with LOX cells (LOX, 72 h), 0.5 to 1 µM; in the experiment with MelJuSo cells (Homo sapiens, MEL-JUSO), 0.5 to 1 µM.
On to `CCCCC1C(c2ccc(Cl)cc2F)=NN(c2ccccc2)C1(C)C(=O)NCCOC` (stereo not drawn) [Compound 54, 4-butyl-3-(4-chloro-2-fluorophenyl)-N-(2-methoxyethyl)-5-methyl-1-phenyl-4,5-dihydro-1H-pyrazole-5-carboxamide], for which the IC50 with A549 cells (Homo sapiens, A549, 72 h) is > 2 µM; in the experiment on LOX cells (LOX, 72 h) it was > 2 µM; in the experiment with MelJuSo cells (Homo sapiens, MEL-JUSO), > 2 µM.
Regarding `COC(=O)CNC(=O)C1(C)C(c2ccc(F)cc2F)=NN(c2ccc(F)cc2F)C1c1ccc(Cl)o1` (stereo not drawn) [Compound 137, methyl 2-(5-(5-chlorofuran-2-yl)-1,3-bis(2,4-difluorophenyl)-4-methyl-4,5-dihydro-1H-pyrazole-4-carboxamido)acetate], the IC50 in the experiment with A549 cells (Homo sapiens, A549, 72 h) is > 2 µM; in the experiment with LOX cells (LOX, 72 h), > 2 µM; in the experiment on MelJuSo cells (Homo sapiens, MEL-JUSO) it was 0.5 to 1 µM.
Consider `CCCCC1C(c2ccc(F)cc2F)=NN(c2ccccc2)C1(C)C(=O)NCCOC` (stereo not drawn) [Compound 57, 4-butyl-3-(2,4-difluorophenyl)-N-(2-methoxyethyl)-5-methyl-1-phenyl-4,5-dihydro-1H-pyrazole-5-carboxamide], for which the IC50 with A549 cells (Homo sapiens, A549, 72 h) lay within 1 to 2 µM; with LOX cells (LOX, 72 h), 0.5 to 1 µM; in the experiment with MelJuSo cells (Homo sapiens, MEL-JUSO), 0.5 to 1 µM.
For the molecule `CCCCC1C(c2ccc(F)cc2)=NN(c2ccccc2)C1(C)C(=O)NCCCN1CCOCC1` (stereo not drawn) [Compound 65, 4-butyl-3-(4-fluorophenyl)-5-methyl-N-(3-morpholinopropyl)-1-phenyl-4,5-dihydro-1H-pyrazole-5-carboxamide], the IC50 in the experiment with A549 cells (Homo sapiens, A549, 72 h) is > 2 µM; with LOX cells (LOX, 72 h), > 2 µM; in the experiment with MelJuSo cells (Homo sapiens, MEL-JUSO), > 2 µM.
On to `CCCCC1C(c2ccc(F)cc2)=NN(c2ccc(C)cc2)C1(C)C(=O)NCCCC(C)(C)CO` (stereo not drawn) [Compound 62, 4-butyl-3-(4-fluorophenyl)-N-(5-hydroxy-4,4-dimethylpentyl)-5-methyl-1-p-tolyl-4,5-dihydro-1H-pyrazole-5-carboxamide], for which the IC50 with A549 cells was > 2 µM; in the experiment with LOX cells, 0.5 to 1 µM; in the experiment with MelJuSo cells, 0.25 to 0.5 µM.
`CC1(C(=O)NCC(O)CCO)C(c2cccs2)C(c2ccc(F)cc2)=NN1c1ccc(F)cc1F` (stereo not drawn) [Compound 124, 1-(2,4-difluorophenyl)-N-(2,4-dihydroxybutyl)-3-(4-fluorophenyl)-5-methyl-4-(thiophen-2-yl)-4,5-dihydro-1H-pyrazole-5-carboxamide]: the IC50 was > 2 µM in the experiment on A549 cells (Homo sapiens, A549, 72 h); > 2 µM in the experiment with LOX cells (LOX, 72 h); > 2 µM with MelJuSo cells (Homo sapiens, MEL-JUSO).
In the case of `CCCCC1C(c2ccc(F)cc2)=NN(c2ccc(Cl)cc2)C1(C)C(=O)NCCCOC` (stereo not drawn) [Compound 13, 4-butyl-1-(4-chlorophenyl)-3-(4-fluorophenyl)-N-(3-methoxypropyl)-5-methyl-4,5-dihydro-1H-pyrazole-5-carboxamide], the IC50 was > 2 µM with A549 cells (Homo sapiens, A549, 72 h); > 2 µM in the experiment with LOX cells (LOX, 72 h); > 2 µM with MelJuSo cells (Homo sapiens, MEL-JUSO).
`CCCCC1(C)C(c2ccc(F)cc2)=NN(c2ccc(F)cc2F)C1(C)C(=O)NCCOC` (stereo not drawn) [Compound 88, 4-butyl-1-(2,4-difluorophenyl)-3-(4-fluorophenyl)-N-(2-methoxyethyl)-4,5-dimethyl-4,5-dihydro-1H-pyrazole-5-carboxamide]: the IC50 is > 2 µM with A549 cells (Homo sapiens, A549, 72 h); > 2 µM in the experiment on LOX cells (LOX, 72 h); > 2 µM with MelJuSo cells (Homo sapiens, MEL-JUSO).
Take `CC1(C(=O)NCC(=O)OCCO)C(c2cccs2)C(c2ccc(F)cc2)=NN1c1ccc(F)cc1F` (stereo not drawn) [Compound 128, 2-hydroxyethyl 2-(1-(2,4-difluorophenyl)-3-(4-fluorophenyl)-5-methyl-4-(thiophen-2-yl)-4,5-dihydro-1H-pyrazole-5-carboxamido)acetate]: the IC50 in the experiment with A549 cells (Homo sapiens, A549, 72 h) lay in the range of 0.5 to 1 µM; with LOX cells (LOX, 72 h), 0.5 to 1 µM; in the experiment on MelJuSo cells (Homo sapiens, MEL-JUSO), 0.25 to 0.5 µM.

For orientation: IC50 means the concentration needed to halve the response being measured.
